Reference: patent US11434490B2, “Fluorogen-binding RNA aptamers” (CENTRE NATIONAL DE LA RECHERCHE SCIENTIFIQUE, priority 2017, dated 2022)
Like-named read-outs stand apart in the source and are kept apart here.

Experiments:
[1] = Salt dependence of Mango/TO1-Biotin fluorescence: K+ titration; format: binding; settings: for Kd / Hill Coefficients K^+: 25 nM RNA, 50 nM TO1-Biotin, 10 mM Tris pH 7.2; for Hill Coefficients K^+: * estimated from initial rise of fluorescence
Procedure: (§1) FIG. 10|Salt dependence of new Mango variants. Dependence of fluorescence of each Mango for (a) K^+, (b) Na^+ in place of K^+, and (c) Mg^2+ ions in a buffer containing 140 mM K^+. […] 10 mM Tris buffer (pH 7.2) was used in place of phosphate of the WB buffer to avoid monovalent counter ions. Color-coding is as follows: Black—Mango I, Blue—Mango II, Green—Mango III, Orange—Mango IV. Hill coefficients are fitted to dark points. Points in lighter shade have been excluded from the fit. Error bars are standard deviations of three replicates.

[2] = Brightness and photophysics of Mango fluorophore complexes; format: physicochemical
Excerpt: (§2) FIG. 2|RNA Mango I, II, III and IV core sequences and their properties. (a) Color coded alignment of RNA Mango I, II, III and IV. G residues in yellow are protected from DMS cleavage (data from panel d) when folded in the presence of fluorophore. Quadruplex stacks and their associated propeller sequences are numbered 1 through 4. The GAAA isolation motif of Mango I, together with two adenines essential for binding, are shown in green and red respectively. Purple shading represents a flanking stem region common for all four Mango aptamers. Schematic: A tertiary structure schematic of Mango I, showing tier 1, 2 and 3 of its quadruplex structure (T1, T2 and T3) and color-coded as in (a). […] Bottom: Top view of the Mango I core (PBD ID: 5V3F), showing the T3 tier of the quadruplex and relevant propeller residues, color coding matches the schematic and panel a. […] KD values are shown next to each titration. (c) Same as for panel b but using 20 nM TO3-Biotin. Data for panels b and c have been normalized such that Mango I has a maximum fluorescence of 1. Error bars are standard deviation of three replicates. (d) DMS chemical protection patterns for the four Mango aptamers. 3′ end-labelled RNA (terminal ^32pCp shown as a black asterisk) was subjected to DMS chemical modification followed by reduction by NaBH4 and aniline cleavage as described in the methods. […] Legend: T1—denatured T1 ladder; OH—partial alkaline hydrolysis ladder; (−) DMS—denatured reaction with ddH2O added in place of DMS; 80° C.
FIG. 13|Photophysics: excitation/emission. (a) Excitation (dark curve) and emission (light curve) spectra of each Mango. All Mangos have Δex max=510 nm and Δem max=535 nm. Color-coding is as follows: Black—Mango I, Blue—Mango II, Green—Mango III, Red—Mango IV.
(§3) Fluorescence data was gathered using a Varian Cary Eclipse Spectrophotometer unless otherwise stated. […] Fluorescence was measured at the maximum excitation and emission wavelengths of each complex (FIG. 13).

[3] = Photobleaching under constant illumination; settings: identical illumination conditions, on average
Procedure: FIG. 16|Formation of 5S-Mango foci and their dynamics in live cells. (a) 5S-Mango IV imaged post cell fixation at 5, 15, 30 and 60 mins after transfection using Lipofectamine based CRISPRMAX transfection reagent. […] (c) Root mean-squared displacement (RMSD) of three observed foci with different diffusive behaviors, fast (Green), slow (Blue) and static (Red) shown in Video 3. Scale bars are 10 μm and arrows indicate foci of interest. (d) Normalized photobleaching traces of 5S-F30-Mango I and IV compared to 5S-F30-dBroccoli under constant illumination with an exposure time of 200 ms. Photobleaching half-lives are stated in the table adjacent and were calculated from an exponential fit of each curve.

[4] = Salt dependence of Mango/TO1-Biotin fluorescence: Na+ in place of K+; format: binding
Procedure: as §1

[5] = original RNA Mango, earlier work; read-out: Kd for TO3-Biotin; cited from earlier work
[6] = Formaldehyde resistance assay; format: physicochemical; settings: in vitro, TO1-Biotin
Procedure: FIG. 15|Effect of formaldehyde on Mango fluorescence. […] In (b) RNA is incubated with the corresponding amounts of formaldehyde first for one hour, then TO1-Biotin is added. Data for each panel is normalized to RFU at the 0% formaldehyde, 0 min point.
RNA Mango aptamers were incubated with TO1-Biotin in WB buffer for at least one hour until equilibrium fluorescence was reached. […] Fluorescence was measured as a kinetic run at a rate of 2 readings per minute using a Varian Cary Eclipse Fluorescence Spectrophotometer, ex/em=510±2.5/535±5 nm.

[7] = read-out: Kd for TO1-Biotin, original RNA Mango, earlier work, cited from earlier work
[8] = Salt dependence of Mango/TO1-Biotin fluorescence: Mg2+ titration; settings: in the presence of potassium; Mg2+ 256 mM
Procedure: as §1

[9] = test system: Circular template; assay: Rolling circle transcription of Mango III; format: biochemical; settings: room temperature, excess TO1-Biotin
Excerpt: FIG. 33|Rolling circle transcription of Mango III.
FIG. 34|Rolling circle transcription of Mango III. Circular construct represented here was used in FIG. 33. Purple: T7 binding site, red and orange template hybridization arms (ligation site between them). Blue Mango sequence.
This illustrates that in select embodiments Mango aptamers may be used for detection of nucleic acids in a two-step fluorescence-based detection system using the Mango aptamers as the reporter. […] Nucleic acid concentration can be discerned by a simple fluorescence reading. In these assays, the Mango III fluorescence emerged rapidly upon the addition of the RNA polymerase (FIG. 32).

[10] = Fluorescence titration, binding affinity for TO1-Biotin
Excerpt: as §2, §3
Where F([RNA]) is the fluorescence as a function of RNA concentration [RNA], Fmax is the maximal fluorescence of the bound complex and Funbound the fluorescence of the unbound fluorophore. When the fluorescence of Funbound was undetectable, it was set to zero.
Fluorescence readings were recorded using a Varian Cary Eclipse Spectrophotometer set to measure at the maximum excitation and emission wavelengths of the Mango II aptamer dye complex. Fluorescence titrations were performed in Mango selection buffer (WB: 140 mM KCl, 1 mM MgCl2, 10 mM NaH2PO4 pH 7.2, 0.05% Tween-20).

[11] = Brightness response to a fluorophore series; format: biochemical; settings: 500 nM RNA, 10 nM fluorophore
Procedure: FIG. 53|Brightness response of MI, MII, MIII mutants and MIV to a fluorophore series. Single fluorescence point reads done in triplicate. 500 nM RNa was incubated with 10 nM fluorophore at room temperature for ˜1 h to allow folding of the RNA aptamers in 1×WB (140 mM KCl, 1 mM MgCl2, 10 mM NaH2PO4, pH 7.2.

[12] = Na+ in place of K+, 25 nM RNA, 50 nM TO1-Biotin

Substance | Kd [1] [mM] | Hill Coefficients K^+ [1] | quantum yield of the TO1-Biotin complex [2] | brightness of the TO1-Biotin bound complex [2] | bleaching half-lives longer than RNA Spinach [3] [times] | fluorescence in the presence of sodium ions [4] | Kd [5] [µM] | resistance to formaldehyde [6] | Kd [7] [µM] | Kd ([7]; listed as RNA Mango) [µM] | effect of high levels of Mg^2+ on fluorescence [8] | higher affinity of the fluorescence response to potassium and sodium ([1]; against the other Mangos) | brighter than enhanced GFP (EGFP) ([2]; TO1-Biotin bound complex) [times] | brighter than Mango-I ([2]; TO1-Biotin, FIG. 2b) [fold] | sensitivity [9] [nM] | Hill Coefficients Na^+ [4, 12] | Kd [4, 12] [mM] | TO1-Biotin binding affinity (in words) [10] | binding of TO1 fluorophore derivatives [11]
Mango-I: original RNA Mango aptamer; core SEQ ID NO: 1 GAAGGGACGGUGCGGAGAGGAGA (chemistry not given here) [reference compound] | 48 ± 5 | 1.2 ± 0.1 | 0.14 | 11,000 M^−1cm^−1 | 10 | did not fluoresce appreciably | 0.008 | substantially resistant to formaldehyde | ~0.003 | 0.0031 | strongly inhibited | – | – | – | – | – | – | – | –
Mango-III: minimal construct engineered from isolate R5-NMM-20; two-tiered G-quadruplex aptamer | 0.4 ± 0.1 | 1.0 ± 0.8* | – | 43,000 M^−1cm^−1 | – | – | – | – | – | – | only modestly inhibited | two order of magnitude | 1.3 | 4 | 5 | 0.5 ± 0.5 | 0.8 ± 0.3 | slightly weaker affinities than Mango-I | bound to a broad set of TO1 fluorophore derivatives
